The text below walks through data of PMC4138887, “Natural Product Polyamines That Inhibit Human Carbonic Anhydrases” (BioMed Research International, 2014).

One assay has as its target T1, hCA I (Homo sapiens, UniProt P00915).
T1 construct: made in house; host or cells: E. coli
Briefly: stopped-flow CO2 hydration CA inhibition assay. Format: biochemical. As to conditions: recombinant human CA I; stopped-flow CO2 hydrase assay; errors ±5%, three determinations; read-out: K i CA I.

In a further assay the target is T2, hCA II (Homo sapiens, UniProt P00918).
T2 construct: made in house; host or cells: E. coli
Briefly: stopped-flow CO2 hydration CA inhibition assay. Format: biochemical. As to conditions: recombinant human CA II; stopped-flow CO2 hydrase assay; errors ±5%, three determinations; read-out: K i CA II.

The target of another assay is T3, hCA IV (Homo sapiens, UniProt P22748).
T3 construct: made in house; host or cells: E. coli
Briefly: stopped-flow CO2 hydration CA inhibition assay. Format: biochemical. Particulars: recombinant human CA IV; stopped-flow CO2 hydrase assay; errors ±5%, three determinations; read-out: K i CA IV.

The next assay concerns the target T4, hCA IX (Homo sapiens, UniProt Q16790).
T4 construct: made in house; host or cells: E. coli
Kind of assay: stopped-flow CO2 hydration CA inhibition assay. The class given is biochemical. As to conditions: recombinant human CA IX; stopped-flow CO2 hydrase assay; errors ±5%, three determinations; read-out: K i CA IX.

A further assay deals with T5, hCA XII (Homo sapiens, UniProt O43570).
T5 construct: made in house; host or cells: E. coli
Briefly: stopped-flow CO2 hydration CA inhibition assay. The class given is biochemical. As to conditions: recombinant human CA XII; stopped-flow CO2 hydrase assay; errors ±5%, three determinations; read-out: K i CA XII.

In another assay the target is T6, hCA XIV (Homo sapiens, UniProt Q9ULX7).
T6 construct: made in house; host or cells: E. coli
Briefly: stopped-flow CO2 hydration CA inhibition assay. The class given is biochemical. As to conditions: recombinant human CA XIV; stopped-flow CO2 hydrase assay; errors ±5%, three determinations; read-out: K i CA XIV.

Another assay deals with Pseudomonas aeruginosa. Details: method as in PMID 22515429. As to conditions: antibacterial, cited from earlier work.
Assay [1] deals with drug sensitive Plasmodium falciparum parasite line (3D7). Set-up: method as in earlier work. Particulars: drug sensitive parasite line 3D7; read-out: IC50 towards Plasmodium falciparum 3D7; cited from earlier work.

Converted amounts (≈) assume the structure as drawn.

T1 sequence (P00915 whole entry): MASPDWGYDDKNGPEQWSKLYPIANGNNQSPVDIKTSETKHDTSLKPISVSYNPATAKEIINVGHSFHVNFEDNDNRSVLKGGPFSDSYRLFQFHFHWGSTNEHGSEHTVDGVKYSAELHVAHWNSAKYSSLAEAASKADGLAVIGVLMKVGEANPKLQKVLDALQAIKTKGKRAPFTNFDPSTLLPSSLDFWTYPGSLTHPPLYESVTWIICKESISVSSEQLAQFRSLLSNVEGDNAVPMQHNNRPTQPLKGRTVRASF
T5 sequence (O43570 25-354): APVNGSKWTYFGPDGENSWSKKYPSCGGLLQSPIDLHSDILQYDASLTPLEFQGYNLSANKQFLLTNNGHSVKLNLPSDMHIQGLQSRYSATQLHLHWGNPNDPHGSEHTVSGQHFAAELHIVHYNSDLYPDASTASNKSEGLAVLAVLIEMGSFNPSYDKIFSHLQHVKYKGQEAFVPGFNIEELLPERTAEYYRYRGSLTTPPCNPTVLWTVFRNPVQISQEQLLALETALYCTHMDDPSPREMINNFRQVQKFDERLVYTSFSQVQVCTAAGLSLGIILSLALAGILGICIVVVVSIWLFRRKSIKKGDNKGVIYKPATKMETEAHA
T3 sequence (P22748 19-312): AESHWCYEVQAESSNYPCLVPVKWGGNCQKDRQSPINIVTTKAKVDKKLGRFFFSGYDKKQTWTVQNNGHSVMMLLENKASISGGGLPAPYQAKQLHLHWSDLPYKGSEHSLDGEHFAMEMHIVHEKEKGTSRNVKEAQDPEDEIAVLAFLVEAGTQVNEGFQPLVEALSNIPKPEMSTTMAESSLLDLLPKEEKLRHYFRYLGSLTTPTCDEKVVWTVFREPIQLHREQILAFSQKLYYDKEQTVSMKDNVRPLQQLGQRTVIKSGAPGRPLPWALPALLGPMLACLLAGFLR
T6 sequence (Q9ULX7 16-337): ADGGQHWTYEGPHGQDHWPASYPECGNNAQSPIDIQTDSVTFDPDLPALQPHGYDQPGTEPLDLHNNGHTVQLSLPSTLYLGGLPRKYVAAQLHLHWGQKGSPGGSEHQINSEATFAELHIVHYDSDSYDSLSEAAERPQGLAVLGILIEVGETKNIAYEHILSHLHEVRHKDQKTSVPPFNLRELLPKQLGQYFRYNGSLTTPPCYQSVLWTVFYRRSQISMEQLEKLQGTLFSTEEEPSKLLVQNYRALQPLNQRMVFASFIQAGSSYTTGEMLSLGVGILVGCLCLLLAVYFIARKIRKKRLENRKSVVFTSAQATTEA
Source text for hCA II: (§1) An Applied Photophysics stopped-flow instrument was used for assaying the CA-catalyzed CO2 hydration activity [26]. IC50 values were obtained from dose response curves working at seven different concentrations of test compound; by fitting the curves using PRISM (http://www.graphpad.com/) and nonlinear least squares methods, values represent the mean of at least three different determinations as described by us previously [27]. The inhibition constants (K i) were then derived by using the Cheng-Prusoff equation [28] as follows: K i = IC50/(1 + [S]/K m), where [S] represents the CO2 concentration at which the measurement was carried out and K m is the concentration of substrate at which the enzyme activity is at half maximal. All enzymes used were recombinant, produced in E. coli as reported earlier [29, 30].
Source text for hCA IV: as §1
Source text for hCA IX: as §1
Source text for hCA XII: as §1
Source text for hCA XIV: An Applied Photophysics stopped-flow instrument was used for assaying the CA-catalyzed CO2 hydration activity [26]. IC50 values were obtained from dose response curves working at seven different concentrations of test compound; by fitting the curves using PRISM (http://www.graphpad.com/) and nonlinear least squares methods, values represent the mean of at least three different determinations as described by us previously [27]. The inhibition constants (K i) were then derived by using the Cheng-Prusoff equation [28] as follows: K i = IC50/(1 + [S]/K m), where [S] represents the CO2 concentration at which the measurement was carried out and K m is the concentration of substrate at which the enzyme activity is at half maximal.

For the compound `COc1c(Br)cc(/C=C/C(=O)NCCCNCCCCNCCCN)cc1Br` [Polyamine 1, ianthelliformisamine A], the Ki was 1760 nM on hCA I; 410 nM on hCA II; 6720 nM on hCA IV; 200 nM on hCA IX; 2810 nM on hCA XII; 2120 nM on hCA XIV. Moreover, the “MIC against Pseudomonas aeruginosa” value with Pseudomonas aeruginosa was 35 µM (≈ 18.2 µg/mL). In addition, in the assay with Pseudomonas aeruginosa (read-out: IC50 against Pseudomonas aeruginosa), the IC50 is 6800 nM.

Take `COc1c(Br)cc(/C=C/C(=O)NCCCNCCCCN)cc1Br` [Polyamine 2, ianthelliformisamine B]: the Ki on hCA I was determined as 770 nM; on hCA II, 370 nM; on hCA IV it was 9100 nM; on hCA IX it was 350 nM; at hCA XII it was 3480 nM; at hCA XIV it was 2280 nM.

Regarding `COc1c(Br)cc(/C=C/C(=O)NCCCNCCCCNCCCNC(=O)/C=C/c2cc(Br)c(OC)c(Br)c2)cc1Br` [Polyamine 3, ianthelliformisamine C], the Ki at hCA I stood at 860 nM; on hCA II, 350 nM; on hCA IV, 9080 nM; on hCA IX it was 270 nM; on hCA XII it was 3500 nM; on hCA XIV, 6960 nM.

As to `O=C(NCCCCNCCCNC(=O)c1ccc(O)c(O)c1)c1ccc(O)c(O)c1` [Polyamine 5, pistillarin], the Ki on hCA I is 790 nM; on hCA II, 340 nM; at hCA IV, 7030 nM; on hCA IX, 360 nM; at hCA XII it was 4210 nM; at hCA XIV, 1520 nM. The IC50 in assay [1] is 1900 nM.

spermatinamine [Polyamine 4]: the Ki on hCA I is 850 nM; on hCA II, 480 nM; on hCA IV, over 20000 nM; on hCA IX, 340 nM; at hCA XII, over 20000 nM; on hCA XIV, 2720 nM. Moreover, the IC50 in assay [1] was 230 nM.

For orientation: IC50 means the concentration at which inhibition is half-maximal.
